Measured values from patent US20230072683A1, “PYRIDO-PYRIMIDIN DERIVATIVES AND PHARMACEUTICAL COMPOSITION, FOR USE IN PREVENTING OR TREATING PI3 KINASE RELATED DISEASES, COMPRISING SAME AS ACTIVE INGREDIENT” (BORYUNG PHARMACEUTICAL CO., LTD, priority 2019, published 2023).
Like-named read-outs stand apart in the source and are kept apart here.

Columns and labels:
[1] = molecular target: PI3K-δ (PI3K(p1108/p857) (h)) (Homo sapiens, UniProt O00329); assay: Evaluation of inhibitory activity against PI3K-δ (HTRF kinase assay); assay type: biochemical; conditions: for inhibition at 0.01 µM: read-out: EXP_VALUE(% Inhibition) PI3K-δ 0.01 μM; for inhibition at 0.1 µM: read-out: EXP_VALUE(% Inhibition) PI3K-δ 0.1 μM
Summary of the method: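 HTRF read-out (665/620 nm ratio ×10000) used Eu-labelled anti-GST, GST-tagged GRP1 PH domain and streptavidin-allophycocyanin after EDTA/PIP3 stop.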

[2] = molecular target: DNA-PK(h) (Homo sapiens, UniProt P78527); assay: Evaluation of inhibitory activity against DNA-PK (HTRF kinase assay, GST-cMyc-p53 substrate); assay type: biochemical; conditions: for inhibition at 0.01 µM: read-out: EXP_VALUE(% Inhibition) DNA-PK(h) 0.01 μM; for inhibition at 0.1 µM: read-out: EXP_VALUE(% Inhibition) DNA-PK(h) 0.1 μM
Summary of the method: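 p53 Ser15 phosphorylation by human DNA-PK was measured by time-resolved FRET ratio (665/620 nm ×10000) using Eu-labelled anti-phospho-Ser15 and d2 anti-GST antibodies. Substrate GST-cMyc-p53 at 50 μM; Mg/ATP-initiated, 30 min at room temperature, EDTA stop.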

Sequence of PI3K-δ (PI3K(p1108/p857) (h)) (O00329 whole entry, the tested form may be a part): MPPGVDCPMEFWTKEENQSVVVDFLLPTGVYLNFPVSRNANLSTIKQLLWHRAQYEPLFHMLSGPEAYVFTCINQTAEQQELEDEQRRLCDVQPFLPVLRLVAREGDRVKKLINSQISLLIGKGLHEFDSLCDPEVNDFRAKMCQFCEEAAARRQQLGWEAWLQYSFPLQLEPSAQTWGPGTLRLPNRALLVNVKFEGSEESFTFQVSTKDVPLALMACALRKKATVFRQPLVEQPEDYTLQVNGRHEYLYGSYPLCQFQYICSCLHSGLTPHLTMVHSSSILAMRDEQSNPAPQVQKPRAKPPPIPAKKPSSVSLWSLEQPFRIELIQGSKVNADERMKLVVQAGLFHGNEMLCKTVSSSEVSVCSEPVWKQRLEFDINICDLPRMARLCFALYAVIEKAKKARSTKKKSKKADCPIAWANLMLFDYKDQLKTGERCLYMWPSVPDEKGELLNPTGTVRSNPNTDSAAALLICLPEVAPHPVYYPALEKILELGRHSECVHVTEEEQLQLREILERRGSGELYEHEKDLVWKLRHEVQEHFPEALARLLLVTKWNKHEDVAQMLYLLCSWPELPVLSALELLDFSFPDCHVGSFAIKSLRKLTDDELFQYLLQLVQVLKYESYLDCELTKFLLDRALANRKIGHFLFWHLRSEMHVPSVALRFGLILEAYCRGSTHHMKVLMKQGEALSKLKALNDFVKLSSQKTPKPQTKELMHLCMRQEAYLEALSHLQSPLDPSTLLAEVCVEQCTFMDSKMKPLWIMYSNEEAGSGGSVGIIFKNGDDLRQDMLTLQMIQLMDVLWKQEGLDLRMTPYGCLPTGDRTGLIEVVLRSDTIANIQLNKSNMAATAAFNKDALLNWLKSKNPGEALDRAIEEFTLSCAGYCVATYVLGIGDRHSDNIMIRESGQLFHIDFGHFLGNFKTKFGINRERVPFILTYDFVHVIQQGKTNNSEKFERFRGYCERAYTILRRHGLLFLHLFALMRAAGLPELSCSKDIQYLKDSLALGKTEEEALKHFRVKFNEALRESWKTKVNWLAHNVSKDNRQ
Sequence of PI3K-δ (PI3K(p1108/p857) (h)) (P27986 whole entry partner, the tested form may be a part): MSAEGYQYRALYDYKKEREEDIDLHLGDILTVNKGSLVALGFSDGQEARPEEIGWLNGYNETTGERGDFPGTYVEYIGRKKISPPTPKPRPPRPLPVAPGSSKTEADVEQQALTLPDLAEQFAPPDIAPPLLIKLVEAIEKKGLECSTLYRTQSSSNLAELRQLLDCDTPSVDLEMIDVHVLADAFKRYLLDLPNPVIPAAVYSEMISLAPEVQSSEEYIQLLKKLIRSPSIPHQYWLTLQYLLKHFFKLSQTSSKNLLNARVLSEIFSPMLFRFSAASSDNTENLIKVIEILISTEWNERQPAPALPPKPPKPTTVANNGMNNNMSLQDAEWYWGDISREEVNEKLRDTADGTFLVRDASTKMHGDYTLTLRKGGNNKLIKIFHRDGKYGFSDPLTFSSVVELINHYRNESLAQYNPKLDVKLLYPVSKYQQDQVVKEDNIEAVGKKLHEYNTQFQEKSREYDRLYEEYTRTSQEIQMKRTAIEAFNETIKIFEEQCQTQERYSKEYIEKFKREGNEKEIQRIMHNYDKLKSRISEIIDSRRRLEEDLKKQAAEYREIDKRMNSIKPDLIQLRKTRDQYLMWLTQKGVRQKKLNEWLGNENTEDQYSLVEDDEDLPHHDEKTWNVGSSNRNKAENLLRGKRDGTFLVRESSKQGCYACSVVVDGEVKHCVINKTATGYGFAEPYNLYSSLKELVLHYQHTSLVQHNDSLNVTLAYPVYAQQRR

inhibition at 0.01 µM ([1]; compound concentration 0.01 μM) [%] | inhibition at 0.1 µM ([1]; compound concentration 0.1 μM) [%] | inhibition at 0.01 µM ([2]; compound concentration 0.01 μM) [%] | inhibition at 0.1 µM ([2]; compound concentration 0.1 μM) [%] | inhibition at 0.1 µM ([1]; compound at 0.1 μM) [%] | inhibition at 0.1 µM ([2]; compound at 0.1 μM) [%] | inhibition at 0.01 µM ([1]; compound at 0.01 μM) [%] | inhibition at 0.01 µM ([2]; compound at 0.01 μM) [%] | SMILES
30 | 72 | 10 | 32 | – | – | – | – | C[C@H](Nc1ncnc2[nH]ccc(=O)c12)c1c(Cl)c2cccc(N3CCc4ccsc4C3)c2c(=O)n1-c1ccccc1 [Example 330, (S)-4-((1-(4-chloro-8-(4,7-dihydrothieno[2,3-c]pyridin-6(5H)-yl)-1-oxo-2-phenyl-1,2-dihydroisoquinolin-3-yl)ethyl)amino)pyrido[2,3-d]pyrimidin-5(8H)-one]
– | – | – | – | 80 | 68 | – | – | C[C@H](Nc1ncnc2[nH]ccc(=O)c12)c1c(Cl)c2cccc(-c3cccs3)c2c(=O)n1-c1ccccc1 [Example 388, (S)-4-((1-(4-chloro-1-oxo-2-phenyl-8-(thiophen-2-yl)-1,2-dihydroisoquinolin-3-yl)ethyl)amino)pyrido[2,3-d]pyrimidin-5(8H)-one]
25.1 | 50.9 | 15.6 | 73.6 | – | – | – | – | Cc1ccc(-c2cccc3c(Cl)c([C@H](C)Nc4ncnc5[nH]ccc(=O)c45)n(-c4ccccc4)c(=O)c23)cc1 [Example 255, (S)-4-((1-(4-chloro-1-oxo-2-phenyl-8-(p-tolyl)-1,2-dihydroisoquinolin-3-yl)ethyl)amino)pyrido[2,3-d]pyrimidin-5(8H)-one]
85 | – | 50 | – | – | – | – | – | Cc1cc(-c2cccc3c(Cl)c([C@H](C)Nc4ncnc5[nH]ccc(=O)c45)n(-c4ccccc4)c(=O)c23)n[nH]1 [Example 234, (S)-4-((1-(4-chloro-8-(5-methyl-1H-pyrazol-3-yl)-1-oxo-2-phenyl-1,2-dihydroisoquinolin-3-yl)ethyl)amino)pyrido[2,3-d]pyrimidin-5(8H)-one]
105 | 107 | 8 | 27 | – | – | – | – | C[C@H](Nc1ncnc2[nH]ccc(=O)c12)c1cc2cccc(-c3ccc(F)cc3)c2c(=O)n1-c1ccccc1 [Example 14, (S)-4-((1-(8-(4-fluorophenyl)-1-oxo-2-phenyl-1,2-dihydroisoquinolin-3-yl)ethyl)amino)pyrido[2,3-d]pyrimidin-5(8H)-one]
14 | 43 | 1 | 20 | – | – | – | – | CC(C)C1CCN(c2cccc3c(Cl)c([C@H](C)Nc4ncnc5[nH]ccc(=O)c45)n(-c4ccccc4)c(=O)c23)CC1 [Example 76, (S)-4-((1-(4-chloro-8-(4-isopropylpiperidin-1-yl)-1-oxo-2-phenyl-1,2-dihydroisoquinolin-3-yl)ethyl)amino)pyrido[2,3-d]pyrimidin-5(8H)-one]
– | – | – | – | – | – | 54 | 35 | C[C@H](O)c1cccc2c(Cl)c([C@H](C)Nc3ncnc4[nH]ccc(=O)c34)n(-c3ccccc3)c(=O)c12 [Example 441, 4-(((S)-1-(4-chloro-8-((S)-1-hydroxyethyl)-1-oxo-2-phenyl-1,2-dihydroisoquinolin-3-yl)ethyl)amino)pyrido[2,3-d]pyrimidin-5(8H)-one]
– | – | – | – | 12 | 15 | – | – | C[C@H](Nc1ncnc2[nH]ccc(=O)c12)c1c(Cl)c2cccc([S@+]([O-])c3ccc(OC(F)(F)F)cc3)c2c(=O)n1-c1ccccc1 [Example 395, 4-(((S)-1-(4-chloro-1-oxo-2-phenyl-8-(((R)-4-(trifluoromethoxy)phenyl)sulfinyl)-1,2-dihydroisoquinolin-3-yl)ethyl)amino)pyrido[2,3-d]pyrimidin-5(8H)-one]
58 | – | 36 | – | – | – | – | – | C[C@H](Nc1ncnc2[nH]ccc(=O)c12)c1c(Cl)c2cccc(-c3ccc(SC4CC4)cc3)c2c(=O)n1-c1ccccc1 [Example 152, (S)-4-((1-(4-chloro-8-(4-(cyclopropylthio)phenyl)-1-oxo-2-phenyl-1,2-dihydroisoquinolin-3-yl)ethyl)amino)pyrido[2,3-d]pyrimidin-5(8H)-one]
